Measured values published in US9822147B2, “Methods of treating ophthalmic diseases using NPR-B agonists” (priority 2009, dated 2017).
Numbered stars: 1 amine (or outer) side, 2 acyl side, 3 side chain; on linkers, the order of the positions; unused ones are H or OH. Square brackets hold non-standard residues; d marks the D form. Peptide text beside a SMILES is read from it. * marks the point of attachment. X3 = NCCN[C@@H]1C[C@@H](C(=O)[*:2])N([*:1])C1; Phe(4-Br) = N[C@@H](Cc1ccc(Br)cc1)C(=O)O; Pro(4R-NH2) = N[C@H]1CN[C@H](C(=O)O)C1; X2 = O=C([C@H]1CCCN([*:1])C1)[*:2]; X1 = CCCCCCCCN1CCC[C@H](C(=O)*)C1; dDap(Me2) = CN(C)C[C@@H](N)C(=O)O; Hyp = O=C(O)[C@@H]1C[C@@H](O)CN1; NHcycloheptyl = C1CCCC(N*)CC1; NMeL = CN[C@@H](CC(C)C)C(=O)O; dOrn = NCCC[C@@H](N)C(=O)O; Nle = CCCC[C@H](N)C(=O)O; Octanoyl = CCCCCCCC(=O)*

Biological target: T1, NPR-B (Homo sapiens, UniProt P20594)
T1 construct: a functional assay using endogenously NPR-B expressing GTM-3 cells; endogenous in cells; host or cells: GTM-3 (human glaucoma trabecular meshwork cells)
T1 sequence (P20594 23-1047): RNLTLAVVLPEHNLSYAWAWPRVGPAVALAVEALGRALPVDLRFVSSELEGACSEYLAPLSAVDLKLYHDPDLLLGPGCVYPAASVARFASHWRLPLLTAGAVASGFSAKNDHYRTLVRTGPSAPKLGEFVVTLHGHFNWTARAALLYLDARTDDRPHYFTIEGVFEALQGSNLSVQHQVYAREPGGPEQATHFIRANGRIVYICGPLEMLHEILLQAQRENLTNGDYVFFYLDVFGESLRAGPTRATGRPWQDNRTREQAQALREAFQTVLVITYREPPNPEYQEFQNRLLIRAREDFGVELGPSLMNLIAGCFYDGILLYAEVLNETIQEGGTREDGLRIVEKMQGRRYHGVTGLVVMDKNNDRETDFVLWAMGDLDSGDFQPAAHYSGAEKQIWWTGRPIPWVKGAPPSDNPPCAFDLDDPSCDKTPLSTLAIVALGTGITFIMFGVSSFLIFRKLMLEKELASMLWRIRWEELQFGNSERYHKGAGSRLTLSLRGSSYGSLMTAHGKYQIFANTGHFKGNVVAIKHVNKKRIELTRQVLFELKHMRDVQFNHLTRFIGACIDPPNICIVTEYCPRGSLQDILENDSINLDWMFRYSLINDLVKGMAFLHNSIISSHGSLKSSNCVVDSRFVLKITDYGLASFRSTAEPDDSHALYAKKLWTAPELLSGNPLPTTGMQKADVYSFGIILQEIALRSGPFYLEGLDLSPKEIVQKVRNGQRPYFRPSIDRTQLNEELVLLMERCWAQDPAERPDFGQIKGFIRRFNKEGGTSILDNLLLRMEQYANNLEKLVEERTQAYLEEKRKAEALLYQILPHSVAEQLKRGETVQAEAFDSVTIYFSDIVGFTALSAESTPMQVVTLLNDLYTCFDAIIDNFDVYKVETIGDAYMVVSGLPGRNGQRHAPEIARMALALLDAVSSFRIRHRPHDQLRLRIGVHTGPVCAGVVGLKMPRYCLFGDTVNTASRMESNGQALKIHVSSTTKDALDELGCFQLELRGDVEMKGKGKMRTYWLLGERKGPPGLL
Test: NPR-B induced production of cyclic GMP in human glaucoma trabecular meshwork cells (GTM-3)
Assay type: cell-based
Conditions: group by EC50 and Emax (CNP = 100%); Table 4; read-out: Activity (group), NPR-B activation assayed with GTM-3 cells

EC50, < 1 µM:
CCCCCCCC(=O)N1CCC[C@H](C(=O)N[C@@H](Cc2ccc(Br)cc2)C(=O)N[C@H](CC(C)C)C(=O)N[C@@H](CC(C)C)C(=O)N2C[C@H](O)C[C@H]2C(=O)N(C)[C@@H](CC(C)C)C(=O)N[C@@H](CC(=O)O)C(=O)N[C@@H](CCCNC(=N)N)C(=O)N[C@H](C(N)=O)[C@@H](C)CC)C1 [JAL-1619, Occ-Sni-Pbf-leu-Leu-Hyp-Nml-Asp-Arg-Ile-NH2] (Octanoyl-[X2][Phe(4-Br)][dL]L[Hyp][NMeL]DRI-NH2)
CCCCCCCC(=O)N1CCC[C@H](C(=O)N[C@@H](Cc2ccccc2)C(=O)N[C@H](CCCN)C(=O)N[C@@H](CC(C)C)C(=O)N2C[C@H](O)C[C@H]2C(=O)N(C)[C@@H](CC(C)C)C(=O)N[C@@H](CC(=O)O)C(=O)N[C@@H](CCCNC(=N)N)C(=O)N[C@H](C(N)=O)[C@@H](C)CC)C1 [JAL-1265, Occ-Sni-Phe-orn-Leu-Hyp-Nml-Asp-Arg-Ile-NH2] (Octanoyl-[X2]F[dOrn]L[Hyp][NMeL]DRI-NH2)
CCCCCCCC(=O)N1CCC[C@H](C(=O)N[C@@H](Cc2ccccc2)C(=O)N[C@H](CC(C)C)C(=O)N[C@@H](CC(C)C)C(=O)N2C[C@H](O)C[C@H]2C(=O)N(C)[C@@H](CC(C)C)C(=O)N[C@@H](CC(=O)O)C(=O)N[C@@H](CCCNC(=N)N)C(=O)N(C)[C@H](C(N)=O)[C@@H](C)CC)C1 [JAL-1569, Occ-Sni-Phe-leu-Leu-Hyp-Nml-Asp-Arg-Nmi-NH2] (HELM PEPTIDE1{[CCCCCCCC(=O)[*:2]].[O=C([C@H]1CCCN([*:1])C1)[*:2]].F.[dL].L.[Hyp].[meL].D.R.[meI].[am]}$$$$V2.0)
CCCCCCCC(=O)OC(C)C(=O)N[C@@H](Cc1ccccc1)C(=O)N[C@H](CC(C)C)C(=O)N[C@@H](CC(C)C)C(=O)N1C[C@H](O)C[C@H]1C(=O)N(C)[C@@H](CC(C)C)C(=O)N[C@@H](CC(=O)O)C(=O)N[C@@H](CCCNC(=N)N)C(=O)N[C@H](C(N)=O)[C@@H](C)CC (stereo partly drawn) [JAL-1294, (AR-201-49)-Phe-leu-Leu-Hyp-Nml-Asp-Arg-Ile-NH2] (HELM PEPTIDE1{[CCCCCCCC(=O)[*:2]].[CC(O[*:1])C(=O)[*:2]].F.[dL].L.[Hyp].[meL].D.R.I.[am]}$$$$V2.0)
CCCCCCCC(=O)N[C@H](C)C(=O)N[C@@H](Cc1ccccc1)C(=O)N[C@H](CC(C)C)C(=O)N[C@@H](CC(C)C)C(=O)N1C[C@H](O)C[C@H]1C(=O)N(C)[C@@H](CC(C)C)C(=O)N[C@H](C(=O)N[C@@H](CCCNC(=N)N)C(=O)N[C@H](C(N)=O)[C@@H](C)CC)C1CCCC1 [JAL-1556, Occ-ala-Phe-leu-Leu-Hyp-Nml-(BB725)-Arg-Ile-NH2] (HELM PEPTIDE1{[CCCCCCCC(=O)[*:2]].[dA].F.[dL].L.[Hyp].[meL].[O=C([C@@H](N[*:1])C1CCCC1)[*:2]].R.I.[am]}$$$$V2.0)
CCCCCCCC(=O)N1CCC[C@H](C(=O)N[C@@H](Cc2ccccc2)C(=O)N[C@H](CN(C)C)C(=O)N[C@@H](CC(C)C)C(=O)N2C[C@H](N)C[C@H]2C(=O)N(C)[C@@H](CC(C)C)C(=O)N[C@H](C(=O)N[C@@H](CCCNC(=N)N)C(=O)N[C@H](C(N)=O)[C@@H](C)CC)C(C)C)C1 [JAL-1403, Occ-Sni-Phe-dap(Me2)-Leu-Tap-Nml-Val-Arg-Ile-NH2] (Octanoyl-[X2]F[dDap(Me2)]L[Pro(4R-NH2)][NMeL]VRI-NH2)
CCCCCCCC(=O)N1CCC[C@H](C(=O)N[C@@H](Cc2ccccc2)C(=O)N[C@H](CC(C)C)C(=O)N[C@@H](CC(C)C)C(=O)N2C[C@H](NCCN)C[C@H]2C(=O)N(C)[C@@H](CC(C)C)C(=O)N[C@@H](CC(=O)O)C(=O)N[C@@H](CCCNC(=N)N)C(=O)N[C@H](C(N)=O)[C@@H](C)CC)C1 [JAL-1371, Occ-Sni-Phe-leu-Leu-Tap(Ae)-Nml-Asp-Arg-Ile-NH2] (Octanoyl-[X2]F[dL]L[X3][NMeL]DRI-NH2)
CCCCCCCC(=O)N[C@H](C)C(=O)N[C@@H](Cc1ccc(Br)cc1)C(=O)N[C@H](CCCNC(=N)N)C(=O)N[C@@H](CC(C)C)C(=O)N1C[C@H](O)C[C@H]1C(=O)N[C@@H](CC(C)C)C(=O)N[C@@H](CC(=O)O)C(=O)N[C@@H](CCCNC(=N)N)C(=O)N[C@H](C(N)=O)[C@@H](C)CC [JAL-1116, Occ-ala-Pbf-arg-Leu-Hyp-Leu-Asp-Arg-Ile-NH2] (HELM PEPTIDE1{[CCCCCCCC(=O)[*:2]].[dA].[O=C([C@H](Cc1ccc(Br)cc1)N[*:1])[*:2]].[dR].L.[Hyp].L.D.R.I.[am]}$$$$V2.0)
CCCCCCCC(=O)N[C@H](C)C(=O)N[C@@H](Cc1ccccc1)C(=O)N[C@H](CC(C)C)C(=O)N[C@@H](CC(C)C)C(=O)N1C[C@H](O)C[C@H]1C(=O)N(C)[C@@H](CC(C)C)C(=O)N[C@@H](CC(=O)O)C(=O)N[C@@H](CCCNC(=N)N)C(=O)NC(C)(CC(C)C)C(N)=O (stereo partly drawn) [JAL-1414, Occ-ala-Phe-leu-Leu-Hyp-Nml-Asp-Arg-Aml-NH2] (HELM PEPTIDE1{[CCCCCCCC(=O)[*:2]].[dA].F.[dL].L.[Hyp].[meL].D.R.[CC(C)CC(C)(N[*:1])C(=O)[*:2]].[am]}$$$$V2.0)
CCCCCCCC(=O)N1CCC[C@H](C(=O)N[C@@H](Cc2ccccc2)C(=O)N[C@H](CC(C)C)C(=O)N[C@@H](CCCC)C(=O)N2C[C@H](O)C[C@H]2C(=O)N(C)[C@@H](CC(C)C)C(=O)N[C@@H](CC(=O)O)C(=O)N2CCC[C@H]2C(=O)NC2CCCCCC2)C1 [JAL-1657, Occ-Sni-Phe-leu-Nle-Hyp-Nml-Asp-Pro-Che] (Octanoyl-[X2]F[dL][Nle][Hyp][NMeL]DP-NHcycloheptyl)
CCCCCCCC(=O)N1CCC[C@H](C(=O)N[C@@H](Cc2ccccc2)C(=O)N[C@H](CC(C)C)C(=O)N[C@@H](CC(C)C)C(=O)N2C[C@H](O)C[C@H]2C(=O)N(C)[C@@H](CC(C)C)C(=O)N[C@@H](CO)C(=O)N[C@@H](CCCNC(=N)N)C(=O)NC2CCCCCC2)C1 [JAL-1752, Occ-Sni-Phe-leu-Leu-Hyp-Nml-Ser-Arg-Che] (Octanoyl-[X2]F[dL]L[Hyp][NMeL]SR-NHcycloheptyl)
CC[C@H](C)[C@H](NC(=O)[C@H](CCCNC(=N)N)NC(=O)[C@H](CC(=O)O)NC(=O)[C@H](CC(C)C)N(C)C(=O)[C@@H]1C[C@@H](O)CN1C(=O)[C@H](CC(C)C)NC(=O)[C@@H](CC(C)C)NC(=O)[C@H](Cc1ccccc1)NC(=O)[C@H]1CCCN(C(=O)CCCc2ccccc2)C1)C(N)=O [JAL-1605, 1319-Sni-Phe-leu-Leu-Hyp-Nml-Asp-Arg-Ile-NH2] (HELM PEPTIDE1{[O=C(CCCc1ccccc1)[*:2]].[O=C([C@H]1CCCN([*:1])C1)[*:2]].F.[dL].L.[Hyp].[meL].D.R.I.[am]}$$$$V2.0)
CCCCCCCCN1CCC[C@H](C(=O)N[C@@H](Cc2ccccc2)C(=O)N[C@H](CC(C)C)C(=O)N[C@@H](CC(C)C)C(=O)N2C[C@H](N)C[C@H]2C(=O)N(C)[C@@H](CC(C)C)C(=O)N[C@@H](CC(=O)O)C(=O)N[C@@H](CCCNC(=N)N)C(=O)NC2CCCCCC2)C1 [JAL-1843, Oct-Sni-Phe-leu-Leu-Tap-Nml-Asp-Arg-Che] (X1-F[dL]L[Pro(4R-NH2)][NMeL]DR-NHcycloheptyl)
CCCCCCCC(=O)N[C@H](C)C(=O)N[C@@H](Cc1ccccc1)C(=O)N[C@H](CC(C)C)C(=O)N[C@@H](CC(C)C)C(=O)N1C[C@H](O)C[C@H]1C(=O)N(C)[C@@H](CC(C)C)C(=O)N[C@H](C(=O)N[C@@H](CCCNC(=N)N)C(=O)N[C@H](C(N)=O)[C@@H](C)CC)C(C)C [JAL-1332, Occ-ala-Phe-leu-Leu-Hyp-Nml-Val-Arg-Ile-NH2] (HELM PEPTIDE1{[CCCCCCCC(=O)[*:2]].[dA].F.[dL].L.[Hyp].[meL].V.R.I.[am]}$$$$V2.0)
CCCCCCCC(=O)N1CCC[C@H](C(=O)N[C@@H](Cc2ccccc2)C(=O)N[C@H](CCCNC(=N)N)C(=O)N[C@@H](CC(C)C)C(=O)N2C[C@H](O)C[C@H]2C(=O)N(C)[C@@H](CC(C)C)C(=O)N[C@@H](CC(=O)O)C(=O)N[C@@H](CCCNC(=N)N)C(=O)N[C@H](C(N)=O)[C@@H](C)CC)C1 [JAL-1255, Occ-Sni-Phe-arg-Leu-Hyp-Nml-Asp-Arg-Ile-NH2] (HELM PEPTIDE1{[CCCCCCCC(=O)[*:2]].[O=C([C@H]1CCCN([*:1])C1)[*:2]].F.[dR].L.[Hyp].[meL].D.R.I.[am]}$$$$V2.0)
